biological target: T1, KRAS G12C 1-169, his-tagged protein, GDP-loaded (Homo sapiens, UniProt P01116, G12C); assay: Biochemical assay: covalent modification of KRAS G12C measured by mass spectrometry (RapidFire/TOF or Q-Exactive); assay type: binding; settings: tested at 32 μM
T1 construct: KRAS G12C 1-169, his-tagged protein, GDP-loaded
Procedure: Test compounds were prepared as 10 mM stock solutions in DMSO (Fisher cat. #BP-231-100). KRAS G12C 1-169, his-tagged protein, GDP-loaded is diluted to 2 μM or 0.5 μM in buffer (20 mM Hepes, 150 mM NaCl, 1 mM MgCl2). Compounds were tested for activity as follows:
Compounds were diluted to 50× final test concentration in DMSO in 96-well storage plates. Compound stock solutions were vortexed before use and observed cwerefully for any sign of precipitation. Dilutions were as follow: • For 32 μM final compound concentration, compounds were diluted to 1600 μM (3 μL 10 mM compound stock +15.75 μL DMSO and mixed well by pipetting. • For 8 μM final compound concentration, compounds were diluted to 400 μM (2 μL 10 mM compound stock +48 μL DMSO) and mixed well by pipetting. 49 μL of the stock protein solution was added to each well of a 96-well PCR plate (Fisher cat#1423027). 1 μl of the diluted 50× compounds were added to appropriate wells in the PCR plate using 12-channel pipettor. Reactions were mixed carefully and thoroughly by pipetting up/down with a 200 μL multi-channel pipettor. The plate was sealed well with aluminum plate seal, and protein and compound were allowed to react for a desired amount of time. 5 μL of 2% formic acid (Fisher cat#A117) in de-ionized H2O was then added to each well followed by mixing with a pipette to quench the reaction. The plate was then resealed with aluminum seal and stored frozen on dry ice until analyzed as described below.
The above described assays were analyzed by mass spectrometry according to one of the following two procedures:
The MS instrument was set to positive polarity, 2 GHz resolution, and low mass (1700) mode and allowed to equilibrate for 30 minutes. The instrument was then calibrated, switched to acquisition mode and the appropriate method loaded.
After another 30 minute equilibration time, a blank batch (i.e., buffer) was run to ensure equipment is operating properly. The samples were thawed at 37° C. for 10 minutes, briefly centrifuged, and transfered to the bench top. Wells A1 and H12 were spiked with 1 μL 500 μM internal standard peptide, and the plates centrifuged at 2000×g for 5 minutes. The method was then run and masses of each individual well recorded.
The masses (for which integration data is desired) for each well were pasted into the platemap and exported from the analysis. Masses for the internal standards were exported as well. The data at 50 ppm was extracted for the +19 charge state, and identity of well A1 was assigned using the internal standard spike and integrated. Peak data was exported as a TOF list and the above steps were repeated individually, for the +20, +21, +22, +23, +24, and +25 charge states.
The masses and peak intensities of KRAS G12C protein species were measured using a Dionex RSLCnano system (Thermo Scientific) connected to a Q Exactive Plus mass spectrometer (Thermo Scientific).
20 μL of sample was loaded onto a Aeris™ 3.6 μm WIDEPORE C4 200 Å, LC Column 50×2.1 mm column maintained at 40° C. at a flow rate of 600 μL/min with 80% Solvent A (0.1% formic acid in H2O) and 20% Solvent B (0.1% formic acid in acetonitrile). The liquid chromatography conditions were 20% solvent B for 1 minute, 20% to 60% solvent B for 1.5 minutes, 60% to 90% solvent for 0.5 minute, 90% solvent B for 0.2 minute, 90% to 20% solvent B for 0.2 minute, and then equilibrated for 1.6 minute before the following sample injection. The flow rate was maintained at 600 μL/min throughout the sample analysis.
The mass spectrometer was operated in profile mode at a resolution of 17500, 5 microscans, using 50 msec max injection time and an AGC target of 1×10^6, and a full mass range from 800-1850 m/z was recorded. The intact protein mode was applied for optimal ion transfer and maximum sensitivity. The ionization method was electrospray ionization, which used a spray voltage of 4 kV, sheath gas flow set to 50 AU, auxiliary gas flow set to 10 AU and sweep gas flow set to 1 AU. […]

Structure (SMILES) | Bind %
C=CC(=O)N1CC2(CCN(c3cc(N4CCC5(CCN(C)C5)C4)cc(-c4c(C)ccc5[nH]ncc45)c3C#N)C2)C1 (stereo not shown) [Compound I-41, 2-(2-acryloyl-2,6-diazaspiro[3.4]octan-6-yl)-6-(5-methyl-1H-indazol-4-yl)-4-(7-methyl-2,7-diazaspiro[4.4]nonan-2-yl)benzonitrile] | +++ (+++ indicates binding activity greater than 75%)
Cc1ccc2[nH]ncc2c1-c1c(F)ccc(N2CCC3(CN(C(=O)/C=C/CN(C)C)C3)C2)c1C#N [Compound I-46, (E)-6-(2-(4-(dimethylamino)but-2-enoyl)-2,6-diazaspiro[3.4]octan-6-yl)-3-fluoro-2-(5-methyl-1H-indazol-4-yl)benzonitrile] | + (+ indicates binding activity greater than 0% and up to 50%)
Cc1ccc2cnn(C)c2c1-c1c(F)ccc(N2CCC3(CN(C(=O)/C=C/CN(C)C)C3)C2)c1C#N [Compound I-47, (E)-2-(1,6-dimethyl-1H-indazol-7-yl)-6-(2-(4-(dimethylamino)but-2-enoyl)-2,6-diazaspiro[3.4]octan-6-yl)-3-fluorobenzo-nitrile] | + (+ indicates binding activity greater than 0% and up to 50%)
C=CC(=O)N1CCC2(C1)CN(c1cc(OCc3ccccn3)cc(-c3c(C)ccc4[nH]ncc34)c1C#N)C2 [Compound I-48, 2-(6-acryloyl-2,6-diazaspiro[3.4]octan-2-yl)-6-(5-methyl-1H-indazol-4-yl)-4-(pyridin-2-ylmethoxy) benzonitrile] | + (+ indicates binding activity greater than 0% and up to 50%)
CC#CC(=O)N1CCC2(C1)CN(c1cc(OCc3ccccn3)cc(-c3c(C)ccc4[nH]ncc34)c1C#N)C2 [Compound I-49, 2-(6-(but-2-ynoyl)-2,6-diazaspiro[3.4]octan-2-yl)-6-(5-methyl-1H-indazol-4-yl)-4-(pyridin-2-ylmethoxy) benzonitrile] | + (+ indicates binding activity greater than 0% and up to 50%)
CC#CC(=O)N1CC2(CCN(c3cc(OCc4ccccn4)cc(-c4c(C)ccc5[nH]ncc45)c3C#N)CC2)C1 [Compound I-51, 2-(2-(but-2-ynoyl)-2,7-diazaspiro[3.5]nonan-7-yl)-6-(5-methyl-1H-indazol-4-yl)-4-(pyridin-2-ylmethoxy) benzonitrile] | + (+ indicates binding activity greater than 0% and up to 50%)
C=CC(=O)N1CCC2(CCN(c3cc(OCc4ccccn4)cc(-c4c(C)ccc5[nH]ncc45)c3C#N)CC2)C1 [Compound I-52, 2-(2-acryloyl-2,8-diazaspiro[4.5]decan-8-yl)-6-(5-methyl-1H-indazol-4-yl)-4-(pyridin-2-ylmethoxy) benzonitrile] | + (+ indicates binding activity greater than 0% and up to 50%)
CC#CC(=O)N1CCC2(CCN(c3cc(OCc4ccccn4)cc(-c4c(C)ccc5[nH]ncc45)c3C#N)CC2)C1 [Compound I-53, 2-(2-(but-2-ynoyl)-2,8-diazaspiro[4.5]decan-8-yl)-6-(5-methyl-1H-indazol-4-yl)-4-(pyridin-2-ylmethoxy) benzonitrile] | + (+ indicates binding activity greater than 0% and up to 50%)
Cc1ccc2cnn(C)c2c1-c1cc(OCc2ccccn2)cc(N2CCC3(CN(C(=O)/C=C/CN(C)C)C3)C2)c1C#N [Compound I-54, (E)-2-(1,6-dimethyl-1H-indazol-7-yl)-6-(2-(4-(dimethylamino)but-2-enoyl)-2,6-diazaspiro[3.4]octan-6-yl)-4-(pyridin-2-ylmethoxy) benzonitrile] | +++ (+++ indicates binding activity greater than 75%)
CC#CC(=O)N1CCC2(CCN(c3cc(OCc4ccccn4)cc(-c4c(C)ccc5[nH]ncc45)c3C#N)C2)C1 (stereo not shown) [Compound I-56, 2-(7-(but-2-ynoyl)-2,7-diazaspiro[4.4]nonan-2-yl)-6-(5-methyl-1H-indazol-4-yl)-4-(pyridin-2-ylmethoxy) benzonitrile] | + (+ indicates binding activity greater than 0% and up to 50%)
C=CC(=O)N1CC2(CCN(c3ccc(OCCCN(C)C)c(-c4c(C)ccc5[nH]ncc45)c3C#N)C2)C1 [Compound I-57, 6-(2-acryloyl-2,6-diazaspiro[3.4]octan-6-yl)-3-(3-(dimethylamino)propoxy)-2-(5-methyl-1H-indazol-4-yl)benzonitrile] | + (+ indicates binding activity greater than 0% and up to 50%)
C=CC(=O)N1CCC2(CC1)CCN(c1cc(OCc3ccccn3)cc(-c3c(C)ccc4[nH]ncc34)c1C#N)C2 [Compound I-58, 2-(8-acryloyl-2,8-diazaspiro[4.5]decan-2-yl)-6-(5-methyl-1H-indazol-4-yl)-4-(pyridin-2-ylmethoxy) benzonitrile] | + (+ indicates binding activity greater than 0% and up to 50%)
CC#CC(=O)N1CCC2(CC1)CCN(c1cc(OCc3ccccn3)cc(-c3c(C)ccc4[nH]ncc34)c1C#N)C2 [Compound I-59, 2-(8-(but-2-ynoyl)-2,8-diazaspiro[4.5]decan-2-yl)-6-(5-methyl-1H-indazol-4-yl)-4-(pyridin-2-ylmethoxy) benzonitrile] | + (+ indicates binding activity greater than 0% and up to 50%)
C=CC(=O)N1CCC2(CCN(c3cc(OCc4ccccn4)cc(-c4c(C)ccc5[nH]ncc45)c3C#N)C2)C1 (stereo not shown) [Compound I-61, 2-(7-acryloyl-2,7-diazaspiro[4.4]nonan-2-yl)-6-(5-methyl-1H-indazol-4-yl)-4-(pyridin-2-ylmethoxy) benzonitrile] | + (+ indicates binding activity greater than 0% and up to 50%)

same assay, conditions: tested at a concentration of 8 μM

Structure (SMILES) | Bind %
C=CC(=O)N1CC2(CCN(c3cc(N4CCC(N5CCN(C)[C@H](C)C5)CC4)cc(-c4c(C)ccc5[nH]ncc45)c3C#N)C2)C1 [Compound I-38, 2-(2-acryloyl-2,6-diazaspiro[3.4]octan-6-yl)-4-(4-((R)-3,4-dimethyl-piperazin-1-yl)piperidin-1-yl)-6-(5-methyl-1H-indazol-4-yl)benzonitrile] | +++ (+++ indicates binding activity greater than 75%)
C=CC(=O)N1CC2(CCN(c3cc(N4CCC(N5CCN(C)CC5)CC4)cc(-c4c(C)ccc5[nH]ncc45)c3C#N)C2)C1 [Compound I-39, 2-(2-acryloyl-2,6-diazaspiro[3.4]octan-6-yl)-6-(5-methyl-1H-indazol-4-yl)-4-(4-(4-methylpiperazin-1-yl)piperidin-1-yl)benzonitrile] | +++ (+++ indicates binding activity greater than 75%)
C=CC(=O)N1CC2(CCN(c3cc(OC[C@@H]4CCCN4C)cc(-c4c(C)ccc5cnn(C)c45)c3C#N)C2)C1 [Compound I-40, 2-(2-acryloyl-2,6-diazaspiro[3.4]octan-6-yl)-6-(1,6-dimethyl-1H-indazol-7-yl)-4-(((S)-1-methylpyrrolidin-2-yl)methoxy) benzonitrile] | +++ (+++ indicates binding activity greater than 75%)
C=CC(=O)N1CC2(CCN(c3cc(OCc4ccccn4)cc(-c4c(C)ccc5[nH]ncc45)c3C#N)CC2)C1 [Compound I-50, 2-(2-acryloyl-2,7-diazaspiro[3.5]nonan-7-yl)-6-(5-methyl-1H-indazol-4-yl)-4-(pyridin-2-ylmethoxy) benzonitrile] | + (+ indicates binding activity greater than 0% and up to 50%)
Cc1ccc2[nH]ncc2c1-c1cc(OCc2ccccn2)cc(N2CCC3(CN(C(=O)/C=C/CN(C)C)C3)C2)c1C#N [Compound I-60, (E)-2-(2-(4-(dimethylamino)but-2-enoyl)-2,6-diazaspiro[3.4]octan-6-yl)-6-(5-methyl-1H-indazol-4-yl)-4-(pyridin-2-ylmethoxy) benzonitrile] | + (+ indicates binding activity greater than 0% and up to 50%)

Reference: patent publication US20210380595A1 (ARAXES PHARMA LLC, priority 2018, published 2021)
